Data set [1] deals with Staphylococcus aureus. Kind of data set: Antibacterial activity against methicillin-sensitive Staphylococcus aureus Sta-001 incubated for 18 hrs by CLSI protocol based two-fold serial agar dilution method. In kind it is functional.
Data set [2] concerns Haemophilus influenzae. The data set can be described thus: Antibacterial activity against Haemophilus influenzae […] ATCC 35054 incubated for 18 hrs by CLSI protocol based two-fold serial agar dilution method. In kind it is functional. For orientation: In agar dilution, organisms are placed on agar that contains the substance at set levels.
The test system of data set [3] is Staphylococcus aureus. Kind of data set: Antibacterial activity against methicillin-resistant Staphylococcus aureus Sta-032 incubated for 18 hrs by CLSI protocol based two-fold serial agar dilution method. It counts as functional.
The test system of data set [4] is Streptococcus pneumoniae. Kind of data set: Antibacterial activity against Streptococcus pneumoniae ATCC 49619 incubated for 18 hrs by CLSI protocol based two-fold serial agar dilution method. In kind it is functional.
Data set [5] relates to Staphylococcus aureus. The data set can be described thus: Antibacterial activity against Staphylococcus aureus Sta-5027 infected in Swiss mouse model of septicemia administered by oral route 1 h and 5 h post-infection. The settings on record: Sta-5027, 168 h, time 7 day. In kind it is functional.
The nature of data set [6]: Terminal half life in Wistar rat at 30 mg/kg, iv. Particulars: in vivo. It counts as ADME, organism-based.
Data set [7] is described as follows: Cmax in Beagle dog at 15 mg/kg, iv. It counts as ADME, organism-based, Canis lupus familiaris. More on the design: dose 15 mg/kg, route iv. Particulars: in vivo.
The nature of data set [8]: Cmax in Wistar rat at 15 mg/kg, iv. More on the design: dose 15 mg/kg, route iv. Particulars: in vivo. In kind it is ADME, organism-based.
Data set [9] is described as follows: AUC in Beagle dog at 15 mg/kg, iv. The settings on record: in vivo.
Data set [10] is described as follows: Volume of distribution in Wistar rat at 30 mg/kg, iv. Particulars: in vivo. It counts as ADME, organism-based.
Data set [11] is described as follows: Clearance in Wistar rat at 15 mg/kg, iv. In kind it is ADME, organism-based. The settings on record: in vivo.
A short description of data set [12]: Volume of distribution in Wistar rat at 15 mg/kg, iv. It counts as ADME, organism-based. The settings on record: in vivo.
Data set [13] in a line: Clearance in Wistar rat at 30 mg/kg, iv. It counts as ADME, organism-based. Particulars: in vivo.
The subject of data set [14] is Staphylococcus aureus. The data set can be described thus: Antibacterial activity against Linezolid-resistant Staphylococcus aureus Sta-5060 incubated for 18 hrs by CLSI protocol based two-fold serial agar dilution method. It counts as functional.
Data set [15] is described as follows: Cmax in Wistar rat at 30 mg/kg, iv. It counts as ADME, organism-based. More on the design: dose 30 mg/kg, route iv. Particulars: in vivo.
Data set [16] in a line: Terminal half life in Beagle dog at 15 mg/kg, iv. In kind it is ADME, organism-based, Canis lupus familiaris. The settings on record: in vivo.
Data set [17] is described as follows: AUC in Beagle dog at 15 mg/kg, iv. It counts as ADME, organism-based, Canis lupus familiaris. Particulars: in vivo. More on the design: dose 15 mg/kg, route iv.
Data set [18] can be described thus: Clearance in Beagle dog at 15 mg/kg, iv. In kind it is ADME, organism-based, Canis lupus familiaris. The settings on record: in vivo.
The test system of data set [19] is Staphylococcus aureus. Kind of data set: Antibacterial activity against Linezolid-resistant Staphylococcus aureus Sta-5059 incubated for 18 hrs by CLSI protocol based two-fold serial agar dilution method. It counts as functional.
A short description of data set [20]: AUC in Wistar rat at 15 mg/kg, iv. The settings on record: in vivo. It counts as ADME, organism-based. More on the design: dose 15 mg/kg, route iv.

The record followed here is ChEMBL document CHEMBL5113436, “WCK 4034: A promising oxazolidinone for treating gram positive infections” (Bioorg Med Chem Lett, 2022).

The term ED50 denotes the dose at which the effect has come halfway, by size or by number of responders. A higher ED50 goes with a need for a large dose. A word on the Cmax: it is the highest concentration seen after dosing. In general, Vd refers to a proportionality between amount in the body and measured concentration, not a real space. The term clearance denotes the volume of plasma or blood freed of the substance per unit of time. Low values mean inefficient removal, high ones efficient removal.

Converted amounts (≈) assume the structure as drawn.

With `CC(=O)NC[C@H]1CN(c2ccc(N3CCC4(CC3)CO4)c(F)c2)C(=O)O1`, the MIC worked out at 4 µg/mL (≈ 11 µM) in data set [1], 16 µg/mL (≈ 44 µM) in [2], 4 µg/mL (≈ 11 µM) in data set [3] and 4 µg/mL (≈ 11 µM) in data set [4].

For the compound `CC(=O)NC[C@H]1CN(c2ccc(N3CCC4(OCCO4)C(F)C3)cc2)C(=O)O1` (stereo not given in full), the ED50 in data set [5] was found to be 5 mg/kg. In addition, the MIC is 16 µg/mL (≈ 40.7 µM) in data set [1], above 16 µg/mL in data set [2], 8 µg/mL (≈ 20.3 µM) in [3] and 4 µg/mL (≈ 10.2 µM) in [4].

In the case of `CC(=O)NC[C@H]1CN(c2ccc(N3CCC4(CC3)OCCCCO4)c(F)c2)C(=O)O1`, the MIC is 16 µg/mL (≈ 38 µM) in data set [1], above 16 µg/mL in [2], 16 µg/mL (≈ 38 µM) in [3] and 4 µg/mL (≈ 9.49 µM) in [4].

`CC(=O)NC[C@H]1CN(c2ccc(N3CCC4(CC3)SCCS4)c(F)c2)C(=O)O1` showed an ED50 in data set [5] above 20 mg/kg. Moreover, the MIC was 8 µg/mL (≈ 18.8 µM) in data set [1], above 16 µg/mL in data set [2], 4 µg/mL (≈ 9.4 µM) in data set [3] and 2 µg/mL (≈ 4.7 µM) in data set [4].

The compound `CC(=O)NC[C@H]1CN(c2ccc(N3CCC4(OCCO4)C(F)C3)c(F)c2)C(=O)O1` (stereo not given in full) showed an ED50 in [5] of 5 mg/kg. The MIC in data set [1] was found to be 12.5 µg/mL (≈ 30.4 µM); in data set [3], 4 µg/mL (≈ 9.72 µM); in [4], 2 µg/mL (≈ 4.86 µM).

Take `CC(=O)NC[C@H]1CN(c2ccc(N3CCC4(CC3)OCC[S+]4[O-])c(F)c2)C(=O)O1` (stereo not given in full): in [5], the ED50 amounted to 10 mg/kg. Moreover, the MIC was found to be 4 µg/mL (≈ 9.4 µM) in [1], 8 µg/mL (≈ 18.8 µM) in data set [2], 4 µg/mL (≈ 9.4 µM) in [3] and 2 µg/mL (≈ 4.7 µM) in [4].

`CS(=O)(=O)NC[C@H]1CN(c2ccc(N3CCC4(OCCO4)C(F)C3)c(F)c2)C(=O)O1` (stereo not given in full) gave an ED50 in data set [5] above 30 mg/kg. Moreover, the MIC in data set [1] was above 32 µg/mL; in data set [2], above 16 µg/mL; in data set [3], 32 µg/mL (≈ 71.5 µM); in data set [4] it was above 8 µg/mL.

On to `CC(=O)NC[C@H]1CN(c2ccc(N3CCC4(CC3)OCC(C)(C)O4)c(F)c2)C(=O)O1`, for which the ED50 in data set [5] was above 20 mg/kg. For the same compound, the MIC in [3] is 8 µg/mL (≈ 19 µM).

In the case of `CC(=O)NC[C@H]1CN(c2cc(F)c(N3CCC4(OCCO4)[C@@H](F)C3)c(F)c2)C(=O)O1`, in data set [6] (Wistar, read-out: beta t1/2 (converted)), the half-life was 7.1 h. Moreover, it took a dose of 2.5 mg/kg to reach the 50% effect level in data set [5] (ED50). Moreover, the MIC in data set [1] was 2 µg/mL (≈ 4.66 µM); in data set [2], above 16 µg/mL; in data set [14], above 8 µg/mL; in [3] it was 2 µg/mL (≈ 4.66 µM); in data set [4], 1 µg/mL (≈ 2.33 µM); in [19] it was above 8 µg/mL. For the same compound, the maximum concentration (Cmax) was found to be 7100 ng/mL in [7], 2370 ng/mL in [8] and 10800 ng/mL in data set [15]. Moreover, the AUC in data set [9] is 135 µg·h/mL; in data set [17], 6.9 µg·h/kg; in data set [20] it was 7.32 µg·h/kg. Moreover, the Vd in data set [10] (Wistar, read-out: Vd) is 9.66 L/kg; in data set [12], 0.4 L/kg. Besides, the figures for the CL in data set [11] and in data set [18] were 220.3 mL/min/kg and 1.7 mL/min/kg, respectively. For the same compound, in data set [13] (Wistar), the clearance is 30.3 mL/min/kg. In addition, in data set [16], the “beta t1/2” value turned out to be 4.01 h.

As to `CC(=O)NC[C@H]1CN(c2ccc(N3CCC4(CC3)NCCS4)c(F)c2)C(=O)O1`, in data set [5], the ED50 was found to be 5 mg/kg. Also, the MIC in data set [1] amounted to 4 µg/mL (≈ 9.79 µM); in [2], 8 µg/mL (≈ 19.6 µM); in data set [3], 4 µg/mL (≈ 9.79 µM); in data set [4], 2 µg/mL (≈ 4.9 µM).

As to `CS(=O)(=O)OC[C@H]1CN(c2ccc(N3CCC4(OCCO4)C(F)C3)c(F)c2)C(=O)O1` (stereo not given in full), the ED50 in [5] was above 10 mg/kg. In addition, the MIC in [1] turned out to be 12.5 µg/mL (≈ 27.9 µM); in data set [3] it was 6.25 µg/mL (≈ 13.9 µM); in [4], 4 µg/mL (≈ 8.92 µM).

Regarding `CC(=O)NC[C@H]1CN(c2ccc(N3CCC4(OCCO4)C(C)C3)c(F)c2)C(=O)O1` (stereo not given in full), the MIC in data set [1] is 32 µg/mL (≈ 78.5 µM); in data set [2], above 16 µg/mL; in data set [3], 32 µg/mL (≈ 78.5 µM); in data set [4] it was 8 µg/mL (≈ 19.6 µM).

Consider `CC(=O)NC[C@H]1CN(c2ccc(N3CCC4(CC3)OCCS4(=O)=O)c(F)c2)C(=O)O1`, for which the MIC in [1] is above 32 µg/mL; in data set [2] it was 16 µg/mL (≈ 36.2 µM); in [3], above 32 µg/mL; in data set [4], 2 µg/mL (≈ 4.53 µM).

Compound `CC(=O)NC[C@H]1CN(c2cc(F)c(N3CCC4(OCCO4)C(F)C3)c(F)c2)C(=O)O1` (stereo not given in full) returned an ED50 in data set [5] below 5 mg/kg. Also, the MIC is 2 µg/mL (≈ 4.66 µM) in data set [1]; 16 µg/mL (≈ 37.3 µM) in data set [2]; above 8 µg/mL in [14]; 2 µg/mL (≈ 4.66 µM) in [3]; above 4 µg/mL in data set [4]; above 8 µg/mL in data set [19].

For the compound `CC(=O)NC[C@H]1CN(c2ccc(N3CCOCC3)c(F)c2)C(=O)O1` [LINEZOLID], the “beta t1/2” value was 2.23 h in data set [6] (iv, 30 mg/kg) and 1.3 h in data set [16]. The compound further yielded an ED50 in [5] of 2.5 mg/kg. In addition, the Cmax in data set [7] worked out at 1620 ng/mL; in [8], 8700 ng/mL; in data set [15], 27300 ng/mL. Also, the results for the AUC in data set [9], in data set [17] and in data set [20] were 78.2 µg·h/mL, 19.9 µg·h/kg and 1.24 µg·h/kg, respectively. Further, the Vd in data set [10] (iv, 30 mg/kg) was found to be 17.82 L/kg; in [12], 0.4 L/kg. Further, the figures for the MIC in data set [2], in data set [14] and in data set [19] were 4 µg/mL (≈ 11.9 µM), above 8 µg/mL and above 8 µg/mL, respectively. Further, the CL is 34 mL/min/kg in [11]; 9.33 mL/min/kg in data set [13] (iv, 30 mg/kg); 3.17 mL/min/kg in data set [18].
